2 molecules from ChEMBL document CHEMBL5390209, “Spinosyn A and Its Derivative Inhibit Colorectal Cancer Cell Growth via the EGFR Pathway” (J Nat Prod, 2023) can be followed below.

The subject of data set [1] is HT-29. Briefly: Inhibition of colony formation in human HT-29 cells at 0.75 uM incubated for 14 days by crystal violet staining based colony formation assay. As to conditions: time 14.0 day. The format is functional, cell-based.
The subject of data set [2] is HT-29. Briefly: Inhibition of EGFR in human HT-29 cells xenografted in BALB/c nude mouse assessed as reduction in EGFR protein expression level at 2.5 mg/kg/day, ip administrated for every other day and measured after 28 days by immunohistochemistry staining based analysis. The class given is functional, organism-based. As to conditions: time 28.0 day. A general note: In xenograft studies the graft and the host belong to different species.

Data set [3] relates to HT-29. Briefly: Inhibition of colony formation in EGFR knockdown human HT-29 cells at 0.75 uM incubated for 14 days by crystal violet staining based colony formation assay. The class given is functional, cell-based. Particulars: time 14.0 day.
Data set [4] has as its system HT-29. Briefly: Inhibition of colony formation in double EGFR/HER2 knockdown human HT-29 cells at 0.75 uM incubated for 14 days by crystal violet staining based colony formation assay. The format is functional, cell-based. Particulars: time 14.0 day.
Data set [5] has as its system SW480. Briefly: Inhibition of colony formation in EGFR knockdown human SW480 cells at 0.75 uM incubated for 14 days by crystal violet staining based colony formation assay. The class given is functional, cell-based. Particulars: time 14.0 day.
For data set [6], the system named is DLD-1. Briefly: Inhibition of colony formation in human DLD-1 cells at 0.75 uM incubated for 14 days by crystal violet staining based colony formation assay. The format is functional, cell-based. As to conditions: time 14.0 day.
The test system of another data set is HCT-116. Briefly: Inhibition of colony formation in human HCT-116 cells at 0.75 uM incubated for 14 days by crystal violet staining based colony formation assay. The class given is functional, cell-based. Particulars: time 14.0 day.
In data set [7] the test system is DLD-1. Briefly: Inhibition of colony formation in human DLD-1 cells at 6 uM incubated for 14 days by crystal violet staining based colony formation assay. The format is functional, cell-based. As to conditions: time 14.0 day.
Data set [8] relates to HT-29. Briefly: Antitumor activity against human HT-29 cells xenografted Balb/c mouse assessed as inhibited tumor growth at 5 mg/kg/day, ip administrated for every other day and measured after 6 days. The class given is functional, organism-based. As to conditions: time 6.0 day.
Data set [9] in a line: Toxicity in human HT-29 cells xenografted Balb/c mouse assessed as change in lung pathology at 5 mg/kg/day, ip administrated for every other day and measured after 28 days. The format is organism-based. As to conditions: in vivo, 672 h, time 28 day.
The target in data set [10] is Epidermal growth factor receptor (Homo sapiens) (UniProt P00533). Briefly: Inhibition of EGFR in human HT-29 cells at 15 uM by Western blot analysis. The class given is cell-based. As to conditions: time 3-15 hrs, TDE = time-dependent effect. A general note: In western blotting, separated proteins are transferred to a membrane and probed.
The target is the same in data set [11]. Briefly: Inhibition of EGFR in human HT-29 cells assessed as reduction in STAT3 phosphorylation level at 15 uM by Western blot analysis. The format is cell-based. As to conditions: time 3-15 hrs, TDE = time-dependent effect.
The target in data set [12] is Receptor tyrosine-protein kinase erbB-2 (Homo sapiens) (UniProt P04626). Briefly: Inhibition of HER2 in human HT-29 cells at 15 uM by Western blot analysis. The format is cell-based. Particulars: time 3-15 hrs, TDE = time-dependent effect.
The subject of data set [13] is SW480. Briefly: Inhibition of colony formation in double EGFR/HER2 knockdown human SW480 cells at 6 uM incubated for 14 days by crystal violet staining based colony formation assay. The class given is functional, cell-based. As to conditions: time 14.0 day.
Data set [14] relates to HT-29. Briefly: Inhibition of HER2 in human HT-29 cells xenografted in BALB/c nude mouse assessed as HER2 protein level in tumor at 5 mg/kg/day, ip administrated for every other day and measured after 28 days by Western blotting analysis. The class given is functional, organism-based. Particulars: time 28.0 day.
For data set [15], the system named is HT-29. Briefly: Antitumor activity against human HT-29 cells xenografted Balb/c mouse assessed as reduction in Ki67 expression level at 5 mg/kg/day, ip administrated for every other day and measured after 28 days by immunohistochemistry staining method. The format is functional, organism-based. Particulars: time 28.0 day.
Data set [16] in a line: Toxicity in human HT-29 cells xenografted Balb/c mouse assessed as change in heart pathology at 5 mg/kg/day, ip administrated for every other day and measured after 28 days. The format is organism-based. Particulars: in vivo, 672 h, time 28 day.

The source made the active and inactive calls. No cut-off for these calls is given here.

Chain of Epidermal growth factor receptor (Homo sapiens) (P00533 whole entry): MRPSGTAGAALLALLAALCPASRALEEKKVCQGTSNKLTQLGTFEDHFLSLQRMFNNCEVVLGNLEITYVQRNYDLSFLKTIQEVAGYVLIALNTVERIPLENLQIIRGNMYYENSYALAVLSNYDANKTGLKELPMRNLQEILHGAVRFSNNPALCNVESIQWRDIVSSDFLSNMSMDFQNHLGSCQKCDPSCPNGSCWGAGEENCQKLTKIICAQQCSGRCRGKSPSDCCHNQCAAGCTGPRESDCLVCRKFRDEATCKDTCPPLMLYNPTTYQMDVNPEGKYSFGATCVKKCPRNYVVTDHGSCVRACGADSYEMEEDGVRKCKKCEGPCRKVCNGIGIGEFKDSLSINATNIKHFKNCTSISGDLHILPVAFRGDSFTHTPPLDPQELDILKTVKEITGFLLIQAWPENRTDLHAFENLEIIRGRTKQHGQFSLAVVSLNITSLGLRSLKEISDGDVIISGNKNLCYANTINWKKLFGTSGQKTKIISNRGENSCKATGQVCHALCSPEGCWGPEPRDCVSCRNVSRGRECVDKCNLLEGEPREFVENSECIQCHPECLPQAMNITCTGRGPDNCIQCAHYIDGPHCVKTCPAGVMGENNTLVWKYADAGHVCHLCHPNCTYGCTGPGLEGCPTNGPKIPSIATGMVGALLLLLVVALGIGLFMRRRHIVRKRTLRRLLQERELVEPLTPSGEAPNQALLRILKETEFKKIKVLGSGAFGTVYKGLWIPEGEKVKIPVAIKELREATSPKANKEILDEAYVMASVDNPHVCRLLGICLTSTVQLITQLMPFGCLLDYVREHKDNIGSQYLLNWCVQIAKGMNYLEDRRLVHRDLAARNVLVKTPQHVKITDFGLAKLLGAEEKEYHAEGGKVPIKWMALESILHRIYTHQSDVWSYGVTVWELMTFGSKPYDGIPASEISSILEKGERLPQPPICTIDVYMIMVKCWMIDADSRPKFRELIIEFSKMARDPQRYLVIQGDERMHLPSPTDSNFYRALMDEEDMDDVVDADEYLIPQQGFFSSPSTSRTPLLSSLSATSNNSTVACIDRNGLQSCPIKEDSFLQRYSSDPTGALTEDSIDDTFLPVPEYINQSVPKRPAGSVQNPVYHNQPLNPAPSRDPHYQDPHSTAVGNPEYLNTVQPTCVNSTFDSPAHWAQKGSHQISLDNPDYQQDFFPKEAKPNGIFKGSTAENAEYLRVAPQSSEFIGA
Chain of Receptor tyrosine-protein kinase erbB-2 (Homo sapiens) (P04626 whole entry): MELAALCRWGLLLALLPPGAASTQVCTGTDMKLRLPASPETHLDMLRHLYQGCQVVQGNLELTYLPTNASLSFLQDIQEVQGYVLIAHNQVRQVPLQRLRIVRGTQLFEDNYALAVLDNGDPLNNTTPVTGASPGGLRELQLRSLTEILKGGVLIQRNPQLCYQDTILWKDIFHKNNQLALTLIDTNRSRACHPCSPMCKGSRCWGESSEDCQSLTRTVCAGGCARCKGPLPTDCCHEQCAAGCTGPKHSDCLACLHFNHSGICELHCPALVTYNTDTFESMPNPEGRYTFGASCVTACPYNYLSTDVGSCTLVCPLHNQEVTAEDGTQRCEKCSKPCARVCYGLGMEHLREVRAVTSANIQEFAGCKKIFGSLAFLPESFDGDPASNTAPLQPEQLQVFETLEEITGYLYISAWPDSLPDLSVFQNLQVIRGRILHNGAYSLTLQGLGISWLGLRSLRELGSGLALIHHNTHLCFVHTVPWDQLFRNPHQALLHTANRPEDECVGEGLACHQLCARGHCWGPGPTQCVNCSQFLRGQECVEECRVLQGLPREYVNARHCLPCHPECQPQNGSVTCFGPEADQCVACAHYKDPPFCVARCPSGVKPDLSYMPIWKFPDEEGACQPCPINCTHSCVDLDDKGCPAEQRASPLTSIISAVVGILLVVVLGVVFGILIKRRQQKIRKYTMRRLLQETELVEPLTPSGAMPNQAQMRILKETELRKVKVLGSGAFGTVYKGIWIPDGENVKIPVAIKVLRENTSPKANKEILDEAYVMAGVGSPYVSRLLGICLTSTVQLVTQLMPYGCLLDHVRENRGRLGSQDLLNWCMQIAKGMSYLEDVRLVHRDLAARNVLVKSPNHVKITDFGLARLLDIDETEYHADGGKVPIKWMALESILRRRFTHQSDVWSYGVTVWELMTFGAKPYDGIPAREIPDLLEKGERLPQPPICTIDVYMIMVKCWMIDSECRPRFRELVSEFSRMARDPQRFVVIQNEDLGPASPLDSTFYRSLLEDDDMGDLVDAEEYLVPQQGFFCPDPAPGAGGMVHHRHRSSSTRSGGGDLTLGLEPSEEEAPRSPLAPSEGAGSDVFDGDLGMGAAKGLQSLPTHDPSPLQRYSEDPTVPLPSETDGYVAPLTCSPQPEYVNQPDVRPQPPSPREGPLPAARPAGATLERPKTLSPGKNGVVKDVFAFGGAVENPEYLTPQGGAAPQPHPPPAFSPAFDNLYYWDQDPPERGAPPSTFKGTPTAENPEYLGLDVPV

For the molecule `CC[C@H]1CCC[C@H](O[C@H]2CC[C@H](N(C)CC(O)CN3CCNCC3)[C@@H](C)O2)[C@@H](C)C(=O)C2=C[C@@H]3[C@@H](C=C[C@@H]4C[C@@H](O[C@@H]5O[C@@H](C)[C@H](OC)[C@@H](OC)[C@H]5OC)C[C@@H]34)[C@@H]2CC(=O)O1` (some centres not stated), the inhibition result with HT-29 [1], in the data set on HT-29 [2], with DLD-1 [6] and in the data set on HCT-116 was “Active” throughout. The outcome with HT-29 [3], in the data set on HT-29 [4] and in the data set on SW480 [5] was inactive.

For `CC[C@H]1CCC[C@H](O[C@H]2CC[C@H](N(C)C)[C@@H](C)O2)[C@@H](C)C(=O)C2=C[C@@H]3[C@@H](C=C[C@@H]4C[C@@H](O[C@@H]5O[C@@H](C)[C@H](OC)[C@@H](OC)[C@H]5OC)C[C@@H]34)[C@@H]2CC(=O)O1` [SPINOSYN A], the inhibition result in the data set on DLD-1 [7], in the data set with HT-29 [8] and with HT-29 [14] was “Active” each time. In addition, the Activity result in data set [9] and in data set [16] was “Non-Toxic” throughout. Moreover, the inhibition entry in [10], in data set [11] and in data set [12] was “Tde” each time. Also, in the data set on SW480 [13], the result was inactive. Also, the result in the data set on HT-29 [15] was Active.
